What all share (assay type): biochemical
Test [1] deals with ROS1 (Homo sapiens (Human), UniProt P08922). Nature of the test: Radio-tagged HotSpot kinase assay, ROS1. As for the experimental part:
(§1) Inhibition of protein kinase activity by compounds was carried out on the Radio-tagged HotSpot kinase experimental platform of Reaction Biology Corporation. Fresh reaction solution (20 mM TIEPESpH 7.5, 10 mM MgCl2, 1 mM EGTA, 0.02% Brij35, 0.02 mg/ml BSA, 0.1 mM Na3VO4, 2 mM DTT, […]) containing corresponding substrates was prepared, cofactor and kinase to be tested were added into the above solution and mixed gently. Echo550 pipetting system was used to add the test compound DMSO solution to each well (the blank control group was added with the corresponding volume of DMSO), then 33P-ATP (with a final specific activity of 0.01 μCi/μL) was added to start the reaction. The reaction solution was incubated at room temperature for 120 minutes. Transferred the incubated reaction solution to P81 ion exchange chromatographic paper (Whatman #3698-915), eluted with […] phosphoric acid solution, and the amount of radioactive phosphorylated substrate remaining on the chromatographic paper was detected.

For test [2], the target named is TRKA (Homo sapiens (Human), UniProt P04629). The experiment in a line: Radio-tagged HotSpot kinase assay, TRKA. As to the method:
as §1

Test [3] addresses TRKA (G677C) (Homo sapiens, UniProt P04629, G667C). Nature of the test: Radio-tagged HotSpot kinase assay, TRKA (G677C). To be noted: read-out: TRKA (G677C) (IC50/nM). As to the method: as §1
Test [4] deals with ALK (G1202R) (Homo sapiens (Human), UniProt Q9UM73, G1202R). Nature of the test: Radio-tagged HotSpot kinase assay, ALK (G1202R). As for the experimental part:
as §1

Test [5] deals with ROS1 (G2032R) (Homo sapiens (Human), UniProt P08922, G2032R). The experiment in a line: Radio-tagged HotSpot kinase assay, ROS1 (G2032R). As for the experimental part:
as §1

The target in test [6] is ALK (Homo sapiens (Human), UniProt Q9UM73). The experiment in a line: Radio-tagged HotSpot kinase assay, ALK. As to the method: as §1
Chain of ALK (Q9UM73 19-1620): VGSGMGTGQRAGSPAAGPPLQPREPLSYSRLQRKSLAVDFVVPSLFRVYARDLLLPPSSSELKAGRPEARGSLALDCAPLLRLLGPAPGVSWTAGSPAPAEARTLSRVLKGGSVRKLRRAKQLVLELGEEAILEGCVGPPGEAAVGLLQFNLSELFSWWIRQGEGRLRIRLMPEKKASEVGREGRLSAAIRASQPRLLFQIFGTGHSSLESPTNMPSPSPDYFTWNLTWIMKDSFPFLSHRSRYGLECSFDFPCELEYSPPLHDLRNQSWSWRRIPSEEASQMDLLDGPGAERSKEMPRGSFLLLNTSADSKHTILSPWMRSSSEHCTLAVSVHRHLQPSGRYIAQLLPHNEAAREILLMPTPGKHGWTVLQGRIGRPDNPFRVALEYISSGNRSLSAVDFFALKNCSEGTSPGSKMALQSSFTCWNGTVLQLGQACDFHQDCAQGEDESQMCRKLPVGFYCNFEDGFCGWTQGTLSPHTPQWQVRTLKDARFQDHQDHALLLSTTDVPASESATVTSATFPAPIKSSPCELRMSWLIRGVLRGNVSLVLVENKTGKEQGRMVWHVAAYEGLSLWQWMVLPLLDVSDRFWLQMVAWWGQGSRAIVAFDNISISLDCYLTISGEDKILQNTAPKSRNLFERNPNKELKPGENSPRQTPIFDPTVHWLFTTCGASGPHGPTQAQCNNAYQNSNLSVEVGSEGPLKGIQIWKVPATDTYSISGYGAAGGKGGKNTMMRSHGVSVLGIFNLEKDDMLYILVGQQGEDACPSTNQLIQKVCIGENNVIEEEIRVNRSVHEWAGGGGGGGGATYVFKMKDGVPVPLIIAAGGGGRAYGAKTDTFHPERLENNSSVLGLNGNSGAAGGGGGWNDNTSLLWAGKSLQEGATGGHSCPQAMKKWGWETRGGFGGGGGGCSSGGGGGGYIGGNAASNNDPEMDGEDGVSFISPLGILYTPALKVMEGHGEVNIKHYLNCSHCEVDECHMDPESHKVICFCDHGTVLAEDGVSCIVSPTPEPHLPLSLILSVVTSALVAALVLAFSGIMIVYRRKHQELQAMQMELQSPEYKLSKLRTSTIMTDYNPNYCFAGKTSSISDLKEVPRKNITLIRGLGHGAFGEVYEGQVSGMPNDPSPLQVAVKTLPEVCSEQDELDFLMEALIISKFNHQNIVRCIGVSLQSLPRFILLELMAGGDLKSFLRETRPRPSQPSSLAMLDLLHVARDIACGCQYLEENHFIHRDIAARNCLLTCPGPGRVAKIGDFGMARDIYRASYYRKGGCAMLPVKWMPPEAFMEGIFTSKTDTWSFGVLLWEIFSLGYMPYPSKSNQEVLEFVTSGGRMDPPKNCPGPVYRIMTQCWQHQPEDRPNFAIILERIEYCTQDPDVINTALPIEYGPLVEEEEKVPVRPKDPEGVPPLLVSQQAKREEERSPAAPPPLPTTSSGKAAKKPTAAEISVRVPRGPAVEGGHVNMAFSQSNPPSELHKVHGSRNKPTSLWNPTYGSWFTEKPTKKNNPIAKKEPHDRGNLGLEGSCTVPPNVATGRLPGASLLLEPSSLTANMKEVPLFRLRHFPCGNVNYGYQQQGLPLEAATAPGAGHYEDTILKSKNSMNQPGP

Chain of ALK (G1202R) (Q9UM73 19-1620 G1202R): as the sequence (Q9UM73 19-1620) above, with G1184R counted along it
Chain of ROS1 (P08922 28-2347): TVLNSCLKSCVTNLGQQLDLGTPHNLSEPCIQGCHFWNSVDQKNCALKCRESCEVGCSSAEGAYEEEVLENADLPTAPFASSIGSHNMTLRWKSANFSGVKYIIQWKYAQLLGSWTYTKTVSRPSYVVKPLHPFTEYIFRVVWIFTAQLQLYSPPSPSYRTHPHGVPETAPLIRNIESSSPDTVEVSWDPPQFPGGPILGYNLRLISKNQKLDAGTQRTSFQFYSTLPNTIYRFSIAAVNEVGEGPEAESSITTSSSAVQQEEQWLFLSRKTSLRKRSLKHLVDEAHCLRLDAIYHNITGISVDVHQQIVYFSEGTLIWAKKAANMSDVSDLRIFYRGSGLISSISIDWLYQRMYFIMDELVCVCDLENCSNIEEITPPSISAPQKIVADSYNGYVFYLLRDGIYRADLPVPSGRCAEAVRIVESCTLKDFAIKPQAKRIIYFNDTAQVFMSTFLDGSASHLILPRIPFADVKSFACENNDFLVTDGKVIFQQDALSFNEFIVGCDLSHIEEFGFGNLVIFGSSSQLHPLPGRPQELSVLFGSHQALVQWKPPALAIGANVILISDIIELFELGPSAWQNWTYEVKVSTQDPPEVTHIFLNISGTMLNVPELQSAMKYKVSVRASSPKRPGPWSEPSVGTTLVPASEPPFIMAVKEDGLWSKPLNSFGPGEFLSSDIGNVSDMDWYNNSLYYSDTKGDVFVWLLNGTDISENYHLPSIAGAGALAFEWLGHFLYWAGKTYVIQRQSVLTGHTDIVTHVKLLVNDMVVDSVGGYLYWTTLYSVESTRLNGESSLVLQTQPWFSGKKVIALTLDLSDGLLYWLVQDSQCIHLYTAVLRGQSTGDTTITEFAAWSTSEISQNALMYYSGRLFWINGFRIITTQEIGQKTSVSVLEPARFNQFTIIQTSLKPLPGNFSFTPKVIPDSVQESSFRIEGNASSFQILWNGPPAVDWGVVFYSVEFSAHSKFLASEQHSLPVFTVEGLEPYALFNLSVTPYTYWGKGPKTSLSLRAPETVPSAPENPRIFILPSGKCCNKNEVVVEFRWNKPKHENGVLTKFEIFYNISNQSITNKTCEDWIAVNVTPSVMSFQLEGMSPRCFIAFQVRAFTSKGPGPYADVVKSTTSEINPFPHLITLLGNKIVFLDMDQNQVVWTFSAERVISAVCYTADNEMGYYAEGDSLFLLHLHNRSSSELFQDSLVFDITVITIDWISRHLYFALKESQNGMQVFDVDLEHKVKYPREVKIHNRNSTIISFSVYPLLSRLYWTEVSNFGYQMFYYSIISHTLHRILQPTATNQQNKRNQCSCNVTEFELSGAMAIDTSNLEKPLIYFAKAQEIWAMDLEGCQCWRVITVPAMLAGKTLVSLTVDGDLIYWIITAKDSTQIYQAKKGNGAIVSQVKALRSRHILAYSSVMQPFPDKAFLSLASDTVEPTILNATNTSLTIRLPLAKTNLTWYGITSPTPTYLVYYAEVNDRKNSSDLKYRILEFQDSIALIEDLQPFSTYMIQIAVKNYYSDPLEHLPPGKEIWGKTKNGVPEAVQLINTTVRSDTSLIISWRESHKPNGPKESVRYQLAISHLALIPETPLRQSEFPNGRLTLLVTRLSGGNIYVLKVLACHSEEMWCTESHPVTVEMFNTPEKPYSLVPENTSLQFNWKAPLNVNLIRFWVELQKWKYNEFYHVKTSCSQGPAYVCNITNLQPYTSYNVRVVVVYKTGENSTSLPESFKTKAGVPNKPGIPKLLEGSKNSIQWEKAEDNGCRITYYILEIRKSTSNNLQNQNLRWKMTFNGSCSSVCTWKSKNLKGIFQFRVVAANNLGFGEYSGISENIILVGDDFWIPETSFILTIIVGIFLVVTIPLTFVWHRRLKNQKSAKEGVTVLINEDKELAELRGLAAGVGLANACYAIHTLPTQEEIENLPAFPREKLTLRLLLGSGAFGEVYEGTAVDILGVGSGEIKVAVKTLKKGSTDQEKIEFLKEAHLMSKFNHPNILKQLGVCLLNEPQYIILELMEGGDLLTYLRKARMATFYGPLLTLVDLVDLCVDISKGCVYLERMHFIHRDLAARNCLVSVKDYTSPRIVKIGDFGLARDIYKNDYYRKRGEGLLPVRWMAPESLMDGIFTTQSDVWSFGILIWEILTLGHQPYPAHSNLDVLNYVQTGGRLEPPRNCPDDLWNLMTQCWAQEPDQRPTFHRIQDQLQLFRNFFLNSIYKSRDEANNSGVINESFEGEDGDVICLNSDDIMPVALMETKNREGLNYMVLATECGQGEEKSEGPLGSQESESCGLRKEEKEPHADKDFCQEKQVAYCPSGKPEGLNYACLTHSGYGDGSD
Chain of TRKA (P04629 33-796): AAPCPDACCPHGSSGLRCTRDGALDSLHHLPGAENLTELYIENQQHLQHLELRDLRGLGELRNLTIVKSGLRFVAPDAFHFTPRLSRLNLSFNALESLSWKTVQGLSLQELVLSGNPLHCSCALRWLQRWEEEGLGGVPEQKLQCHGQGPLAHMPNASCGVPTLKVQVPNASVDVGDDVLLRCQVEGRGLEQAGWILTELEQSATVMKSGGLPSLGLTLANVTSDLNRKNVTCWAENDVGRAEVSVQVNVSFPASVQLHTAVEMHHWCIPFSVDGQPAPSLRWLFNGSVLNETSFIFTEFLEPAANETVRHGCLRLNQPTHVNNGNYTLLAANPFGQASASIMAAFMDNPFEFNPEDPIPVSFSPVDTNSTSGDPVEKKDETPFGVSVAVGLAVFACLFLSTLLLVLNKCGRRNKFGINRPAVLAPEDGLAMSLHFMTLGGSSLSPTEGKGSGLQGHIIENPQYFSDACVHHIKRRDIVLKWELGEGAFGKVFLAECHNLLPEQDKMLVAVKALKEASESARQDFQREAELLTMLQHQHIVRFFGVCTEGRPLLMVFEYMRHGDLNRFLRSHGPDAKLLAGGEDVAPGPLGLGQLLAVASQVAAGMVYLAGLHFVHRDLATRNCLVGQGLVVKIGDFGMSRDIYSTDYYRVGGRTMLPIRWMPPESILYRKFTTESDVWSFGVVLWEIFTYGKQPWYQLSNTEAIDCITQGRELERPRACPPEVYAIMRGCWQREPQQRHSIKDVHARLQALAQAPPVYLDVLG
Chain of ROS1 (G2032R) (P08922 28-2347 G2032R): as the sequence (P08922 28-2347) above, with G2005R counted along it
Chain of TRKA (G677C) (P04629 33-796 G667C limits assumed): as the sequence (P04629 33-796) above, with G635C counted along it

For `COc1ccc(F)cc1[C@@H](C)Nc1ccn2ncc(NC3=NC(C)(C)CO3)c2n1` [Example 1], the IC50 in test [1] is 0.5 to 5 nM; in test [2], 0.5 to 5 nM; in test [3] it was 0.5 to 5 nM; in test [4] it was 5 to 50 nM; in test [5], 0.5 to 5 nM; in test [6] it was 0.5 to 5 nM.

Consider `C[C@@H](Nc1ccn2ncc(NC3=NC(C)(C)CO3)c2n1)c1cc(F)cc(F)c1F` [Example 2], for which the IC50 in test [1] lay within 0.5 to 5 nM; in test [2], 0.5 to 5 nM; in test [3], 0.5 to 5 nM; in test [4], 5 to 50 nM; in test [5], 0.5 to 5 nM; in test [6], 0.5 to 5 nM.

On to `C[C@@H](Nc1ccn2ncc(C3=NOCCN3)c2n1)c1cc(F)cc(F)c1F` [Example 3], for which the IC50 in test [1] was less than 0.5 nM; in test [2], less than 0.5 nM; in test [3] it was less than 0.5 nM; in test [4], 0.5 to 5 nM; in test [5], less than 0.5 nM; in test [6], 0.5 to 5 nM.

`C[C@@H](Nc1ccn2ncc(C3=NN=CC(C)(C)N3)c2n1)c1cc(F)cc(F)c1F` [Example 5]: the IC50 in test [1] was 0.5 to 5 nM; in test [2] it was 0.5 to 5 nM; in test [3], 5 to 50 nM; in test [4] it was 5 to 50 nM; in test [5], 5 to 50 nM; in test [6], 5 to 50 nM.

On to `C[C@@H](Nc1ccn2ncc(C3=NC(=O)C(C)(C)N3)c2n1)c1cc(F)cc(F)c1F` [Example 8], for which the IC50 in test [1] is less than 0.5 nM; in test [2], less than 0.5 nM; in test [3], less than 0.5 nM; in test [4], 5 to 50 nM; in test [5], less than 0.5 nM; in test [6], 0.5 to 5 nM.

Regarding `COc1ncc(F)cc1[C@@H](C)Nc1ccn2ncc(C3=NC(=O)C(C)(C)N3)c2n1` [Example 10], the IC50 in test [1] is less than 0.5 nM; in test [2], less than 0.5 nM; in test [3], less than 0.5 nM; in test [4] it was 5 to 50 nM; in test [5] it was less than 0.5 nM; in test [6], 0.5 to 5 nM.

As to `CCCOC(=O)/N=C(\N)c1cnn2ccc(N[C@H](C)c3cc(F)cc(F)c3F)nc12` [Example 11], the IC50 in test [1] lay in the range of 0.5 to 5 nM; in test [2] it was 0.5 to 5 nM; in test [3], 5 to 50 nM; in test [4], 50 to 500 nM; in test [5], 5 to 50 nM; in test [6] it was 50 to 500 nM.

Take `COc1ccc(F)cc1[C@@H](C)Nc1ccn2ncc(NC3=NC(C)(C)CN3)c2n1` [Example 12]: the IC50 in test [1] lay in the range of 0.5 to 5 nM; in test [2], 0.5 to 5 nM; in test [3], 5 to 50 nM; in test [4] it was 5 to 50 nM; in test [5], 5 to 50 nM; in test [6] it was 5 to 50 nM.

With `C[C@@H](Nc1ccn2ncc(C(=O)NOCCO)c2n1)c1cc(F)cc(F)c1F` [Example 13], the IC50 is 5 to 50 nM in test [1]; 5 to 50 nM in test [2]; 50 to 500 nM in test [3]; 50 to 500 nM in test [4]; 50 to 500 nM in test [5]; 50 to 500 nM in test [6].

`COc1ccc(F)cc1[C@@H](C)Nc1ccn2ncc(OC3=NC(C)(C)CN3)c2n1` [Example 14]: the IC50 fell in the range of 0.5 to 5 nM in test [1]; 0.5 to 5 nM in test [2]; 5 to 50 nM in test [3]; 50 to 500 nM in test [4]; 5 to 50 nM in test [5]; 50 to 500 nM in test [6].

In the case of `C[C@@H](Nc1ccn2ncc(OC3=NCC(C)(C)N3)c2n1)c1cc(F)cc(F)c1F` [Example 15], the IC50 was in the range of 0.5 to 5 nM in test [1]; 0.5 to 5 nM in test [2]; 5 to 50 nM in test [3]; 50 to 500 nM in test [4]; 5 to 50 nM in test [5]; 50 to 500 nM in test [6].

Consider `C[C@@H](Nc1ccn2ncc(C3=NOCC(C)(C)N3)c2n1)c1cc(F)ccc1OC(F)F` [Example 16], for which the IC50 in test [1] fell in the range of 0.5 to 5 nM; in test [2] it was 0.5 to 5 nM; in test [3], 5 to 50 nM; in test [4] it was 50 to 500 nM; in test [5], 5 to 50 nM; in test [6], 5 to 50 nM.

`C[C@@H](Nc1ccn2ncc(NC3=NCC(C)(C)N3)c2n1)c1cc(F)cc(F)c1F` [Example 17]: the IC50 in test [1] lay within 0.5 to 5 nM; in test [2], 0.5 to 5 nM; in test [3] it was 5 to 50 nM; in test [4], 50 to 500 nM; in test [5], 5 to 50 nM; in test [6], 50 to 500 nM.

As for `COc1c(F)cc(F)cc1[C@@H](C)Nc1ccn2ncc(NC3=NC(C)(C)CO3)c2n1` [Example 18], the IC50 fell in the range of 0.5 to 5 nM in test [1]; 0.5 to 5 nM in test [2]; 5 to 50 nM in test [3]; 50 to 500 nM in test [4]; 5 to 50 nM in test [5]; 5 to 50 nM in test [6].

With `C[C@@H](Nc1ccn2ncc(C3=NOCCN3)c2n1)c1cc(F)cc(C(F)(F)F)c1F` [Example 19], the IC50 in test [1] lay within 0.5 to 5 nM; in test [2], 0.5 to 5 nM; in test [3], 5 to 50 nM; in test [4], 50 to 500 nM; in test [5], 5 to 50 nM; in test [6], 5 to 50 nM.

For the compound `COc1c(F)cc(F)cc1[C@@H](C)Nc1ccn2ncc(C3=NC(=O)C(C)(C)N3)c2n1` [Example 20], the IC50 is less than 0.5 nM in test [1]; less than 0.5 nM in test [2]; 0.5 to 5 nM in test [3]; 5 to 50 nM in test [4]; 0.5 to 5 nM in test [5]; 0.5 to 5 nM in test [6].

Regarding `C[C@@H](Nc1ccn2ncc(C3=NC(=O)C(C)(C)N3)c2n1)c1cc(F)ccc1OC(F)(F)F` [Example 21], the IC50 in test [1] is less than 0.5 nM; in test [2], less than 0.5 nM; in test [3], 0.5 to 5 nM; in test [4], 5 to 50 nM; in test [5], 0.5 to 5 nM; in test [6] it was 0.5 to 5 nM.

For the compound `CCOc1ncc(F)cc1[C@@H](C)Nc1ccn2ncc(C3=NOCCN3)c2n1` [Example 22], the IC50 in test [1] is less than 0.5 nM; in test [2], less than 0.5 nM; in test [3] it was 0.5 to 5 nM; in test [4], 5 to 50 nM; in test [5], 0.5 to 5 nM; in test [6] it was 0.5 to 5 nM.

As for `C[C@@H](Nc1ccn2ncc(C3=NC(=O)C(C)(C)N3)c2n1)c1cc(F)cnc1OCC(F)(F)F` [Example 23], the IC50 in test [1] was less than 0.5 nM; in test [2], less than 0.5 nM; in test [3], 0.5 to 5 nM; in test [4], 50 to 500 nM; in test [5], 0.5 to 5 nM; in test [6] it was 5 to 50 nM.

With `CONC(=O)c1cnn2ccc(N[C@H](C)c3cc(F)cc(F)c3F)nc12` [Example 24], the IC50 in test [1] fell in the range of 5 to 50 nM; in test [2], 5 to 50 nM; in test [3], 50 to 500 nM; in test [4], 50 to 500 nM; in test [5] it was 50 to 500 nM; in test [6], 5 to 50 nM.

For `C[C@@H](Nc1ccn2ncc(C3=NC(=O)C(C)(C)N3)c2n1)c1cc(F)cnc1OC(F)(F)F` [Example 25], the IC50 is less than 0.5 nM in test [1]; less than 0.5 nM in test [2]; 0.5 to 5 nM in test [3]; 5 to 50 nM in test [4]; 0.5 to 5 nM in test [5]; 0.5 to 5 nM in test [6].

For `C[C@@H](Nc1ccn2ncc(C3=NOCCN3)c2n1)c1cc(F)ccc1C(F)(F)F` [Example 27], the IC50 in test [1] lay in the range of 0.5 to 5 nM; in test [2], 0.5 to 5 nM; in test [3], 50 to 500 nM; in test [4], 50 to 500 nM; in test [5], 50 to 500 nM; in test [6], 5 to 50 nM.

With `C[C@@H](Nc1ccn2ncc(C3=NOCCN3)c2n1)c1cc(F)ccc1C(F)F` [Example 28], the IC50 in test [1] lay within 0.5 to 5 nM; in test [2], 0.5 to 5 nM; in test [3], 50 to 500 nM; in test [4] it was 50 to 500 nM; in test [5] it was 50 to 500 nM; in test [6], 5 to 50 nM.

These data come from US20240025908A1, “COMPOUND USED AS KINASE INHIBITOR AND USE THEREOF” (TYK MEDICINES, INC., priority 2020, published 2024).
